{"source": "patent US11173173B2", "about": "“Methods for treating chemoresistant cancer-initiating cells” (UNIVERSITY OF CONNECTICUT, priority 2015, dated 2021)", "key": {"[1]": {"system": "leukemic Pten:β-cat^Act (T-ALL) mice", "test": "Long-term survival of treated leukemic mice", "assay_type": "in vivo, mouse", "conditions": "single treatment cycle, no transplantation", "description": "Chemotherapy consisted of Nelarabine (Selleck) and Dexamethasone (BioVision) administered daily for 5 days consecutively. 43.4 mg/ml Nelarabine was administered intravenously via the tail vain according to the formula: Body Weight (g)×5=volume to inject (μl), which yielded 217 mg/kg. 2.5 mg/ml Dexamethasone was injected intraperitoneally according to the formula: Body Weight (g)×4=volume to inject (μl), yielding 10 mg/kg. […] [Low]NanoDXR (also referred to as [Low]NanoDoxo throughout) treatment used doxorubicin nanoparticles as described in International Patent Publication WO 2015/054269 (incorporated by reference in its entirety) administered as a single IV injection once per week on day 1 relative to above treatments using 0.8 mg/kg. Maintenance [Low]NanoDXR consisted of once per week injections of 0.4 mg/kg. Groups combining Nelarabine with Doxorubicin used a single injection containing both drugs. All drugs were solubilized in 45% (2-Hydroxypropyl)-β-cyclodextrin (HBC)."}, "[2]": {"test": "Cardiotoxicity based on cardiac troponin I level and histology", "assay_type": "in vivo", "conditions": "1 mg/kg (8 doses) and high single dose", "description": "Data are presented as mean±SD (n=5) *P<0.05, **P<0.01. c provides cardiac Troponin I level after administration of free doxorubicin (DOX) and doxorubicin nanoparticles (DOX-NPs).\nThe doxorubicin nanoparticles have an average particle diameter of 138 nm. […] The release of Dox in PBS was steady at approximately 2% per day, with 24% released in 12 days. […] Cardiotoxicity was tested based on cardiac troponin I level and histology."}, "[3]": {"system": "pan β-catenin", "test": "Western analysis of pan β-catenin in compound-treated TOP and FOP cells", "conditions": "TOP and FOP cells treated 48 hours at EC90, EC50, EC25", "quoted_text": "(§1) Cytotoxicity profiles (CTG) of compounds were also determined. […] TOP and FOP cells were treated with candidate compounds at EC90, EC50 and EC25 derived from (b) for 48 hours, washed and flash frozen for Western analysis (c).\n(§2) Activity of compounds was tested against HEK-TOP cells vs. HEK FOP cells for inhibition of luciferase activity. The cytotoxicity profiles of the compounds were also tested using Cell Titer Glo assay (Promega) on HEK-TOP cell lines. […] The HEK cells and HEK Top cells were plated at 300,000 cells/well in 6 well plates and were treated in duplicate with EC90, EC50 and EC25 concentrations of the 25 repurchased compounds as well as three controls. After 48 h of exposure, the cells were washed with PBS and flash frozen. The frozen cells were lysed directly in plates for Western analysis."}, "[4]": {"system": "pS^552-β-catenin", "test": "Western analysis of pS552-β-catenin in compound-treated TOP and FOP cells", "conditions": "TOP and FOP cells treated 48 hours at EC90, EC50, EC25", "quoted_text": "as §1, §2"}}, "data": [{"compound": "COc1cccc2c1C(=O)c1c(O)c3c(c(O)c1C2=O)C[C@@](O)(C(=O)CO)C[C@@H]3O[C@H]1C[C@H](N)[C@H](O)[C@H](C)O1", "note": "[DXR, doxorubicin]", "values": [{"measurement": "survival of treated leukemic mice", "setting": "[1]", "result": "only minor and insignificant improvement"}, {"measurement": "cardiotoxicity (cardiac troponin I level and histology)", "setting": "[2]", "result": "showed cardiotoxicity"}, {"measurement": "effect on pan β-catenin (Western)", "setting": "[3]", "result": "only minimal effect on pan β-catenin"}, {"measurement": "inhibition of pS552-β-catenin (Western)", "setting": "[4]", "result": "effectively inhibited pS^552-β-catenin"}]}]}
